# Experimental data: the kinase profiling compilation of Christmann-Franck et al. (2016)
# Legend:
# Assay in all cases: KINOMEscan competition binding
# Settings in all cases: compound 10.0 µM
# [1] = target: BMX (human) (UniProt P51813)
# [2] = target: AKT3 (human) (UniProt Q9Y243)
# [3] = target: FGFR1 (human) (UniProt P11362)
# [4] = target: PRKCE (human) (UniProt Q02156)
# [5] = target: SRPK1 (human) (UniProt Q96SB4)
# [6] = target: MUSK (human) (UniProt O15146)
# [7] = target: CDC42BPB (human) (UniProt Q9Y5S2)
# [8] = target: SLK (human) (UniProt Q9H2G2)
# [9] = target: WEE1 (human) (UniProt P30291)
# [10] = target: DDR1 (human) (UniProt Q08345)
# [11] = target: CAMK4 (human) (UniProt Q16566)
# [12] = target: MAP4K5 (human) (UniProt Q9Y4K4)
# [13] = target: FES (human) (UniProt P07332)
# [14] = target: MAPK9 (human) (UniProt P45984)
# [15] = target: PKN2 (human) (UniProt Q16513)
# [16] = target: NTRK1 (human) (UniProt P04629)
# [17] = target: CSK (human) (UniProt P41240)
# [18] = target: ABL1 (human) (UniProt P00519)
# [19] = target: RPS6KA3 KD1 (human) (UniProt P51812)
# [20] = target: LTK (human) (UniProt P29376)
# [21] = target: CAMK1G (human) (UniProt Q96NX5)
# [22] = target: IKBKB (human) (UniProt O14920)
# [23] = tested on: ABL1 (human), P00519 [F317I]
# [24] = tested on: EGFR (human), P00533 [L858R]
# [25] = target: PAK7 (human) (UniProt Q9P286)
# [26] = target: STK32B (human) (UniProt Q9NY57)
# [27] = target: NUAK2 (human) (UniProt Q9H093)
# [28] = target: CAMK2A (human) (UniProt Q9UQM7)
# [29] = target: ADCK3 (human) (UniProt Q8NI60)
# [30] = target: CDKL2 (human) (UniProt Q92772)
# [31] = target: MAPK13 (human) (UniProt O15264)
# [32] = target: MAP4K1 (human) (UniProt Q92918)
# [33] = target: ABL2 (human) (UniProt P42684)
# [34] = target: PRKG1 (human) (UniProt Q13976)
# [35] = target: JAK1 JH1 catalytic (human) (UniProt P23458)
# [36] = target: PRKCD (human) (UniProt Q05655)
# [37] = target: PAK3 (human) (UniProt O75914)
# [38] = target: RPS6KA6 KD1 (human) (UniProt Q9UK32)
# [39] = target: PTK2B (human) (UniProt Q14289)
# [40] = target: EPHB1 (human) (UniProt P54762)
# [41] = target: ULK1 (human) (UniProt O75385)
# [42] = target: EPHA4 (human) (UniProt P54764)
# Sequence of RPS6KA6 KD1 (human) (Q9UK32 whole entry, looked up): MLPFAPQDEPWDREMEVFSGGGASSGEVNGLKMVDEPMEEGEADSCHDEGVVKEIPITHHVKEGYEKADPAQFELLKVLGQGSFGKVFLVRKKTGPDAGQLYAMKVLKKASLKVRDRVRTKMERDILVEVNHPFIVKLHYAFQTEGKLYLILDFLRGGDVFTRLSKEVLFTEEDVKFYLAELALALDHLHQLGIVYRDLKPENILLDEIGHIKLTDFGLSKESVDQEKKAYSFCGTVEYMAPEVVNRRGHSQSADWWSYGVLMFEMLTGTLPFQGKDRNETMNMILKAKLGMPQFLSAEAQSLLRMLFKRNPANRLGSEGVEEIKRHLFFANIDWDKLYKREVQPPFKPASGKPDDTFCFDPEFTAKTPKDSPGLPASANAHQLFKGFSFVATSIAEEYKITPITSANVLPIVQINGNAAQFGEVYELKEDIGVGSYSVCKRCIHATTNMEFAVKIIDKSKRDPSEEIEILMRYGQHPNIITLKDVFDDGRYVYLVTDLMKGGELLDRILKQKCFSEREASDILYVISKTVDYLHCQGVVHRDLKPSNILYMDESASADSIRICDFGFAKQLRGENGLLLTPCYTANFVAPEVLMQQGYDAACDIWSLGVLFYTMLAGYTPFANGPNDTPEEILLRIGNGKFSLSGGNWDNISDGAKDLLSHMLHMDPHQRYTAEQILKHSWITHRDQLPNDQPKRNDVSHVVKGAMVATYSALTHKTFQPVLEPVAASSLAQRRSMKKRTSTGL
# Sequence of CAMK1G (human) (Q96NX5 whole entry, looked up): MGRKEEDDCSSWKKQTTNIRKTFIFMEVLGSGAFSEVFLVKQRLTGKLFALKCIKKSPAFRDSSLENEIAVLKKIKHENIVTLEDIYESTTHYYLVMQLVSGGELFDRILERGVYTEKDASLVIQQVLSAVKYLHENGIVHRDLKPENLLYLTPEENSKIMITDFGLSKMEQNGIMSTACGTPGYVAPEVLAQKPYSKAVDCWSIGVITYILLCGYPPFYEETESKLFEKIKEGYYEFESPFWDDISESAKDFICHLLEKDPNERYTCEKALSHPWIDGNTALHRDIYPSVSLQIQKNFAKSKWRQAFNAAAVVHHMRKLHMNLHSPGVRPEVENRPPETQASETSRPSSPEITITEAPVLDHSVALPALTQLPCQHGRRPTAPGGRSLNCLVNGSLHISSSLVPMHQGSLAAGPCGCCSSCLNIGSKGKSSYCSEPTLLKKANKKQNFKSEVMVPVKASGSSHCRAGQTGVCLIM
# Sequence of MAP4K5 (human) (Q9Y4K4 whole entry, looked up): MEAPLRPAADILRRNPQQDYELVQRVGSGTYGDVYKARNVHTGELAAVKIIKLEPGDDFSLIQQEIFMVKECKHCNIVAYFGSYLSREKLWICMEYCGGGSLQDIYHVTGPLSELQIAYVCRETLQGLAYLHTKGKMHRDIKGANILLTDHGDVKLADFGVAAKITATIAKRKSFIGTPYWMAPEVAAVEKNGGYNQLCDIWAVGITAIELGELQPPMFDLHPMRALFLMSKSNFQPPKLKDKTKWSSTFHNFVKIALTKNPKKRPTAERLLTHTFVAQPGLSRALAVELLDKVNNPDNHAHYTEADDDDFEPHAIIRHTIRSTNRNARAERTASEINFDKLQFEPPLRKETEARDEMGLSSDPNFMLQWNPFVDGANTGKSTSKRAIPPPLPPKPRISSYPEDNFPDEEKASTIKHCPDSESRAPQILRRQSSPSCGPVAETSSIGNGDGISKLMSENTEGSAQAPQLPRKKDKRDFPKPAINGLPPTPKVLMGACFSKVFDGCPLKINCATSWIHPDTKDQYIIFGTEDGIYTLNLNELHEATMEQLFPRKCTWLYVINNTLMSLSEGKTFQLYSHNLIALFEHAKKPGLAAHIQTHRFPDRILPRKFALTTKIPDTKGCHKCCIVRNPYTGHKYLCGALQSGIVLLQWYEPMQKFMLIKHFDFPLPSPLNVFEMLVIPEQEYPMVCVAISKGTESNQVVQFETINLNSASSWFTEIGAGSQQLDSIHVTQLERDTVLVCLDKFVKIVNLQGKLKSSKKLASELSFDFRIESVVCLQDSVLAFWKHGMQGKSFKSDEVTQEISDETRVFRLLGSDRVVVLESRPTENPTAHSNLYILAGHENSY
# Sequence of PRKCD (human) (Q05655 whole entry, looked up): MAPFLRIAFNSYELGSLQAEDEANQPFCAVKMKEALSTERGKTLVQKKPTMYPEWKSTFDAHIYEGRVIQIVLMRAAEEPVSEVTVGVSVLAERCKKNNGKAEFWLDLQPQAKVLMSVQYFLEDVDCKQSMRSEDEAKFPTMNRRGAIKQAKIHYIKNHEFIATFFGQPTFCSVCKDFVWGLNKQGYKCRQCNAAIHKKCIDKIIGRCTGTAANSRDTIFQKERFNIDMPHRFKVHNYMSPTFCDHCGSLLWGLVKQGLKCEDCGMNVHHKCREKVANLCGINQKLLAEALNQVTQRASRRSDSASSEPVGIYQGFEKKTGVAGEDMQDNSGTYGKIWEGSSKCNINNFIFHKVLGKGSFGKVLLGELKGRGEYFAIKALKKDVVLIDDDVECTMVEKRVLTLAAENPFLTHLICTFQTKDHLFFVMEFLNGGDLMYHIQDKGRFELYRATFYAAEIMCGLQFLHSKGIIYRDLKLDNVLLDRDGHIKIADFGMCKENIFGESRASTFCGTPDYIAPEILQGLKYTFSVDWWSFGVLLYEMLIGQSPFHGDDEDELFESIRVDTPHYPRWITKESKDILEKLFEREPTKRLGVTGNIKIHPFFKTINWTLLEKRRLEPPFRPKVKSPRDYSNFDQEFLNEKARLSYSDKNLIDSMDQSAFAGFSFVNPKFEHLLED
# Sequence of ADCK3 (human) (Q8NI60 whole entry, looked up): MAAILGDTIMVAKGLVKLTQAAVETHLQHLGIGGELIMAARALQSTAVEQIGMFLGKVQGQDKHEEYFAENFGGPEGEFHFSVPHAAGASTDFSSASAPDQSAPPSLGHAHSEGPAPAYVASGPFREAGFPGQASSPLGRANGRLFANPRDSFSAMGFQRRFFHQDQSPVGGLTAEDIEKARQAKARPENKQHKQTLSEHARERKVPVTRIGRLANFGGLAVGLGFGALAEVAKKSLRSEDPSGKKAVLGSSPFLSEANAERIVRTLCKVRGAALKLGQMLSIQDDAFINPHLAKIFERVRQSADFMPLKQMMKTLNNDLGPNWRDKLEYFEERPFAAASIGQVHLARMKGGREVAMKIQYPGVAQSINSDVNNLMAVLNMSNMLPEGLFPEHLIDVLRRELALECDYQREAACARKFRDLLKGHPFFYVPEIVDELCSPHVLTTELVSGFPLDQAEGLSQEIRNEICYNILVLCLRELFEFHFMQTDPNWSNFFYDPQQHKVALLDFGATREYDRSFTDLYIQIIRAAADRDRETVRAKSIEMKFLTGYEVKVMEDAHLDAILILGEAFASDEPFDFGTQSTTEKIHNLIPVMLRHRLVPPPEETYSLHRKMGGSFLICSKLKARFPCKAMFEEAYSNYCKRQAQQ
# Sequence of PAK3 (human) (O75914 whole entry, looked up): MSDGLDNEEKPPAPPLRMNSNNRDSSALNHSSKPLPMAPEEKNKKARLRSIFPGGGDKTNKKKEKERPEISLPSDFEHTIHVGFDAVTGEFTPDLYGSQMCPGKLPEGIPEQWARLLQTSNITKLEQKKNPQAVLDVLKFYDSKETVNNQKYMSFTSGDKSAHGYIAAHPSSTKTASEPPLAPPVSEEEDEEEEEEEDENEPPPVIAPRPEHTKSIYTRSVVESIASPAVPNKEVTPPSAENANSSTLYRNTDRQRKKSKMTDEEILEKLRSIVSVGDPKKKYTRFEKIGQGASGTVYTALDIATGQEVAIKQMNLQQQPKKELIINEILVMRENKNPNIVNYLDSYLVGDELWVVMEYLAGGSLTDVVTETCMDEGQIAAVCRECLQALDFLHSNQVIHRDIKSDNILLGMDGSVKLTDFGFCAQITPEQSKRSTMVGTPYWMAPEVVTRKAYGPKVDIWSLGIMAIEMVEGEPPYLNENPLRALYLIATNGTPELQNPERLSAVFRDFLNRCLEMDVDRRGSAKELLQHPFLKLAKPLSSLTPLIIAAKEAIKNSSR
# Sequence of CAMK4 (human) (Q16566 whole entry, looked up): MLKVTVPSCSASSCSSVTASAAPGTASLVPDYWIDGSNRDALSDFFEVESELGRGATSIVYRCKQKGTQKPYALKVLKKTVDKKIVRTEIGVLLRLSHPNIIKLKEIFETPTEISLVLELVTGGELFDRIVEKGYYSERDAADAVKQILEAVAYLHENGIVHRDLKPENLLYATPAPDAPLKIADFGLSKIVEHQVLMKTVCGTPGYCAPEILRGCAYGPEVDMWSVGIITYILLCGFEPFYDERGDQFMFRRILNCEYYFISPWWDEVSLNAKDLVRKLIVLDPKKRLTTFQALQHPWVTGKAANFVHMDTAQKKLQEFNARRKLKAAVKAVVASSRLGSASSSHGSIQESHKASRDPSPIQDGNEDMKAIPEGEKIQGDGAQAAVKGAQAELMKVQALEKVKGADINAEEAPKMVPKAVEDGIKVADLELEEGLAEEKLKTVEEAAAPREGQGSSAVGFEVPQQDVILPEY
# Sequence of STK32B (human) (Q9NY57 whole entry, looked up): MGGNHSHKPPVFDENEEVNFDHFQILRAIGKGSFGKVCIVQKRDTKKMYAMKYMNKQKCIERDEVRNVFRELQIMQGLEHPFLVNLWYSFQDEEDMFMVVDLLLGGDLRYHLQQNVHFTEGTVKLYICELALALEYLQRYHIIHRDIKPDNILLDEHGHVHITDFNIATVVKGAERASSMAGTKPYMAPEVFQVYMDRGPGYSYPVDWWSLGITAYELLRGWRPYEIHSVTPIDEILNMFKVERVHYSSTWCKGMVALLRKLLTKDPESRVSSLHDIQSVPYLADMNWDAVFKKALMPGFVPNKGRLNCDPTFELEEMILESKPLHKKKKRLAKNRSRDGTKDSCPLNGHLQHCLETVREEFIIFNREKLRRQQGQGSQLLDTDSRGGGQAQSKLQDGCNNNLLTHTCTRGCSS
compound,measurement,setting,value
COc1cc(N2CCN(C)CC2)ccc1Nc1ncc2c(n1)Nc1ccccc1NC2=O,"kinase still bound, per cent of control",[1],99%
same,"kinase still bound, per cent of control",[2],100%
same,"kinase still bound, per cent of control",[3],80%
same,"kinase still bound, per cent of control",[4],93%
same,"kinase still bound, per cent of control",[5],100%
same,"kinase still bound, per cent of control",[6],100%
same,"kinase still bound, per cent of control",[7],100%
same,"kinase still bound, per cent of control",[8],100%
same,"kinase still bound, per cent of control",[9],86%
same,"kinase still bound, per cent of control",[10],81%
same,"kinase still bound, per cent of control",[11],100%
same,"kinase still bound, per cent of control",[12],98%
same,"kinase still bound, per cent of control",[13],100%
same,"kinase still bound, per cent of control",[14],69%
same,"kinase still bound, per cent of control",[15],100%
same,"kinase still bound, per cent of control",[16],1.6%
same,"kinase still bound, per cent of control",[17],100%
same,"kinase still bound, per cent of control",[18],24%
same,"kinase still bound, per cent of control",[19],72%
same,"kinase still bound, per cent of control",[20],72%
same,"kinase still bound, per cent of control",[21],100%
same,"kinase still bound, per cent of control",[22],100%
same,"kinase still bound, per cent of control",[23],65%
same,"kinase still bound, per cent of control",[24],28%
same,"kinase still bound, per cent of control",[25],78%
same,"kinase still bound, per cent of control",[26],93%
same,"kinase still bound, per cent of control",[27],71%
same,"kinase still bound, per cent of control",[28],90%
same,"kinase still bound, per cent of control",[29],100%
same,"kinase still bound, per cent of control",[30],9.5%
same,"kinase still bound, per cent of control",[31],100%
same,"kinase still bound, per cent of control",[32],100%
same,"kinase still bound, per cent of control",[33],79%
same,"kinase still bound, per cent of control",[34],100%
same,"kinase still bound, per cent of control",[35],50%
same,"kinase still bound, per cent of control",[36],100%
same,"kinase still bound, per cent of control",[37],82%
same,"kinase still bound, per cent of control",[38],93%
same,"kinase still bound, per cent of control",[39],99%
same,"kinase still bound, per cent of control",[40],96%
same,"kinase still bound, per cent of control",[41],100%
same,"kinase still bound, per cent of control",[42],100%
O=C1NC(=O)/C(=C/c2c[nH]c(=O)c(-c3ccc(N4CCNCC4)nc3)c2)S1,"kinase still bound, per cent of control",[1],94%
same,"kinase still bound, per cent of control",[2],98%
same,"kinase still bound, per cent of control",[3],100%
same,"kinase still bound, per cent of control",[4],56%
same,"kinase still bound, per cent of control",[5],25%
same,"kinase still bound, per cent of control",[6],97%
same,"kinase still bound, per cent of control",[7],100%
same,"kinase still bound, per cent of control",[8],29%
same,"kinase still bound, per cent of control",[9],91%
same,"kinase still bound, per cent of control",[10],100%
same,"kinase still bound, per cent of control",[11],100%
same,"kinase still bound, per cent of control",[12],52%
same,"kinase still bound, per cent of control",[13],100%
same,"kinase still bound, per cent of control",[14],100%
same,"kinase still bound, per cent of control",[15],41%
same,"kinase still bound, per cent of control",[16],78%
same,"kinase still bound, per cent of control",[17],80%
same,"kinase still bound, per cent of control",[18],91%
same,"kinase still bound, per cent of control",[19],42%
same,"kinase still bound, per cent of control",[20],100%
same,"kinase still bound, per cent of control",[21],85%
same,"kinase still bound, per cent of control",[22],84%
same,"kinase still bound, per cent of control",[23],100%
same,"kinase still bound, per cent of control",[24],49%
same,"kinase still bound, per cent of control",[25],65%
same,"kinase still bound, per cent of control",[26],100%
same,"kinase still bound, per cent of control",[27],37%
same,"kinase still bound, per cent of control",[28],7.8%
same,"kinase still bound, per cent of control",[29],76%
same,"kinase still bound, per cent of control",[30],67%
same,"kinase still bound, per cent of control",[31],100%
same,"kinase still bound, per cent of control",[32],10%
same,"kinase still bound, per cent of control",[33],78%
same,"kinase still bound, per cent of control",[34],100%
same,"kinase still bound, per cent of control",[35],24%
same,"kinase still bound, per cent of control",[36],32%
same,"kinase still bound, per cent of control",[37],86%
same,"kinase still bound, per cent of control",[38],34%
same,"kinase still bound, per cent of control",[39],100%
same,"kinase still bound, per cent of control",[40],95%
same,"kinase still bound, per cent of control",[41],21%
same,"kinase still bound, per cent of control",[42],99%
